# Experimental data published in patent US5387592A, “Substituted benzoxazole, benzthiazole, and benzimidazole derivatives as angiotensin II antagonists” (Imperial Chemical Industries PLC, priority 1991, dated 1995).
# Structures can show the parent of a compound that is named as a salt.
# Target: T1, AII receptors (Cavia porcellus, UniProt Q9WV26)
# T1 construct: the source of cell surface membranes is the guinea pig adrenal gland; from tissue; host or cells: guinea pig adrenal gland, cell surface membrane fraction
# T1 sequence (Q9WV26 1-359): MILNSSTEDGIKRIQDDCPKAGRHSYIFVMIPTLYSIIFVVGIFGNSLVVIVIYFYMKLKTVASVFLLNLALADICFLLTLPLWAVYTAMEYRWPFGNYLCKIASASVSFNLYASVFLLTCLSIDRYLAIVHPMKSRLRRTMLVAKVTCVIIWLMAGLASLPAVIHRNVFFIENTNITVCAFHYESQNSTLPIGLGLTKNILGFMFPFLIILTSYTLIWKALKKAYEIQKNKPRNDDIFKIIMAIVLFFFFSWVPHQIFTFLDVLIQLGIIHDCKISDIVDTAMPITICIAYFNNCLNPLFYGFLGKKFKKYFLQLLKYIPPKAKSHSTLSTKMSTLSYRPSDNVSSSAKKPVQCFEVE
# Assay: Test A: displacement of radiolabelled AII binding from guinea pig adrenal gland membrane fraction
# Settings: guinea pig adrenal gland membranes; read-out: IC50 (concentration for 50% displacement of radiolabelled AII binding)
# Method: This in vitro procedure involves the incubation of the test compound initially at a concentration of 100 micromolar (or less) in a buffered mixture containing fixed concentrations of radiolabelled AII and a cell surface membrane fraction prepared from a suitable angiotensin target tissue. In this test, the source of cell surface membranes is the guinea pig adrenal gland which is well known to respond to AII. Interaction of the radiolabelled AII with its receptors (assessed as radiolabel bound to the particulate membrane fraction following removal of unbound radiolabel by a rapid filtration procedure such as is standard in such studies) is antagonized by compounds which also bind to the membrane receptor sites and the degree of antagonism (observed in the test as displacement of membrane-bound radioactivity) is determined readily by comparing the receptor-bound radioactivity in the presence of the test compound at the specified test concentration with a control value determined in the absence of the test compound. Using this procedure compounds showing at least 50% displacement of radiolabelled AII binding at a concentration of 10^-4 M are retested at lower concentrations to determine their potency. […]
smiles,measurement,value
"CCc1cc(OCc2ccc3oc(-c4ccccc4-c4nnn[nH]4)nc3c2)c2c(n1)CCCC2 [Example 3, 2-ethyl-5,6,7,8-tetrahydro-4-[(2-(2-(1H-tetrazol-5-yl)phenyl)benzoxazol-5-yl)methoxy]quinoline hydrochloride]",IC50,200 nM
